One block for each molecule: values may come before it.
Legend:
[1] = Oral bioavailability in CD-1 mouse at 2.5 mg/kg; type: ADME, organism-based; conditions: in vivo; for bioavailability: CD-1, mouse
[2] = Clearance in iv dosed CD-1 mouse; type: ADME, organism-based; conditions: in vivo
[3] = Toxicity in mouse xenografted with human MCF7 cells assessed as body weight change at 20 mg/kg, po administered once daily for 21 days; type: organism-based; conditions: in vivo, 504 h, time 21 day
[4] = Cmax in CD-1 mouse at 2.5 mg/kg, po; type: ADME, organism-based; set-up: dose 2.5 mg/kg, route po; conditions: in vivo
[5] = AUC (0 to 24 hrs) in CD-1 mouse at 2.5 mg/kg, po; type: ADME, organism-based; set-up: time < 24 hr, dose 2.5 mg/kg, route po; conditions: in vivo; for AUC(0-t) at 24 h: CD-1, mouse
[6] = Volume of distribution in iv dosed CD-1 mouse; type: ADME, organism-based; conditions: in vivo
MCF7 [7] = assay: Antiproliferative activity against human MCF7 cells measured after 5 days by CellTiter-GLo luminescent assay; type: functional, cell-based; conditions: MCF7, 120 h
[8] = Binding affinity to estrogen receptor (unknown origin); set-up: species or system Homo sapiens
[9] = Induction of estrogen receptor degradation in human MCF7 cells incubated for 4 hrs by in-cell Western assay; type: cell-based; conditions: MCF7, 4 h
[10] = Cmax in Beagle dog at 1 mg/kg, po; type: ADME, organism-based, Canis lupus familiaris; set-up: dose 1 mg/kg, route po; conditions: in vivo
[11] = Toxicity in Sprague-Dawley rat assessed as adverse effects at 500 mg/kg, po; type: organism-based; conditions: in vivo
[12] = In vivo antagonist activity at estrogen receptor in immature CD-IGS rat assessed as inhibition of estradiol-induced uterine growth by measuring uterine wet weight pretreated with compound for 15 mins followed by estradiol addition administered orally for three days and measured on day 4 relative to control; type: functional; conditions: route po; time 4 day
[13] = Metabolic stability in mouse hepatocyte assessed as intrinsic clearance measured per 10^6 cells; type: ADME, cell-based; conditions: hepatocytes, read-out: CLH
[14] = Toxicity in Beagle dog assessed as adverse effects at 1000 mg/kg, po; type: organism-based, Canis lupus familiaris; conditions: in vivo
MCF7 [15] = assay: Antitumor activity against human MCF7 cells xenografted in mouse assessed as tumor growth inhibition when administered orally once daily for 21 days; type: functional, cell-based; conditions: dose 6.5-60 mg/kg, route po, time 21.0 day, DDE = dose-dependent effect
[16] = Clearance in iv dosed Beagle dog; type: ADME, organism-based, Canis lupus familiaris; conditions: in vivo
Cytochrome P450 2D6 = Cytochrome P450 2D6 (Homo sapiens, UniProt P10635); assay: Inhibition of CYP2D6 (unknown origin); type: ADME
MCF7 [17] = assay: Antitumor activity against tamoxifen-resistant human MCF7 cells xenografted in mouse assessed as tumor growth inhibition at 200 mg/kg, po dosed once daily for 21 days relative to control; type: functional; conditions: MCF7, 504 h, time 21 day, read-out: TGI
Cytochrome P450 1A2 = target: T1, Cytochrome P450 1A2 (Homo sapiens, UniProt P05177); assay: Inhibition of CYP1A2 (unknown origin); type: ADME
T1 sequence (P05177 whole entry): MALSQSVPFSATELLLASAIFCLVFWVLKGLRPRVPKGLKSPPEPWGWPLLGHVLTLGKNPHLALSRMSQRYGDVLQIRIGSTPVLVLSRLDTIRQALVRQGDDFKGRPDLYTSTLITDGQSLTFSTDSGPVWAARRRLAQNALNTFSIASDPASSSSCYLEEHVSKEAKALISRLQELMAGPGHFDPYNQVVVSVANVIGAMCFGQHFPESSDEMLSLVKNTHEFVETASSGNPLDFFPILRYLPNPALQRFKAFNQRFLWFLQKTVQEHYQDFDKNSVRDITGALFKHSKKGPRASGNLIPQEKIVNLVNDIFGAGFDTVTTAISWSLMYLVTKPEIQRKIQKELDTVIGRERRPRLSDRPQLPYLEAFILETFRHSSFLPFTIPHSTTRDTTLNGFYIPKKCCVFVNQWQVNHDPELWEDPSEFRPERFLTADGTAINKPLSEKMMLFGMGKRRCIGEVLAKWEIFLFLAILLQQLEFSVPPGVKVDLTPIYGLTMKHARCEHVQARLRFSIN

MCF7 [18] = assay: Antitumor activity against human MCF7 cells xenografted in mouse assessed as tumor shrinkage by measuring tumor growth inhibition at 60 mg/kg, po administered once daily for 21 days; type: functional; conditions: MCF7, 504 h, time 21 day, read-out: TGI
[19] = AUC (0 to 24 hrs) in Sprague-Dawley rat at 1 mg/kg, po; type: ADME, organism-based; set-up: time < 24 hr, dose 1 mg/kg, route po; conditions: in vivo
[20] = Permeability of the compound from apical to basolateral side in human Caco-2 cells; type: ADME, cell-based; conditions: read-out: permeability
[21] = Metabolic stability in rat hepatocytes assessed as intrinsic clearance measured per million cells; type: ADME, cell-based, Hepatocyte; conditions: read-out: CLH
Cytochrome P450 2C19 = Cytochrome P450 2C19 (Homo sapiens, UniProt P33261); assay: Inhibition of CYP2C19 (unknown origin); type: ADME
[22] = Cmax in Sprague-Dawley rat at 1 mg/kg, po; type: ADME, organism-based; set-up: dose 1 mg/kg, route po; conditions: in vivo
[23] = Metabolic stability in dog hepatocytes assessed as intrinsic clearance measured per million cells; type: ADME, cell-based, Canis lupus familiaris, Hepatocyte; conditions: read-out: CLH
Cytochrome P450 2C9 = Cytochrome P450 2C9 (Homo sapiens, UniProt P11712); assay: Inhibition of CYP2C9 (unknown origin); type: ADME
MCF7 [24] = assay: Antitumor activity against human MCF7 cells xenografted in mouse assessed as tumor growth inhibition at 20 mg/kg, po administered once daily for 21 days; type: functional; conditions: MCF7, 504 h, time 21 day, read-out: TGI
[25] = C0 in Beagle dog at 1 mg/kg, iv; type: ADME, organism-based, Canis lupus familiaris; conditions: in vivo
[26] = Efflux ratio of apparent permeability from basolateral to apical side over apical to basolateral side in human Caco-2 cells; type: ADME, cell-based
[27] = AUC (0 to 24 hrs) in Sprague-Dawley rat at 1 mg/kg, iv; type: ADME, organism-based; set-up: time < 24 hr, dose 1 mg/kg, route iv; conditions: in vivo
[28] = AUC (0 to 24 hrs) in Beagle dog at 1 mg/kg, iv; type: ADME, organism-based, Canis lupus familiaris; set-up: time < 24 hr, dose 1 mg/kg, route iv; conditions: in vivo
Cytochrome P450 3A4 = Cytochrome P450 3A4 (Homo sapiens, UniProt P08684); assay: Inhibition of CYP3A4 (unknown origin) using testosterone as substrate; type: ADME
[29] = C0 in Sprague-Dawley rat at 1 mg/kg, iv; type: ADME, organism-based; conditions: in vivo
[30] = Volume of distribution in iv dosed Sprague-Dawley rat; type: ADME, organism-based; conditions: in vivo
[31] = Genotoxicity in Salmonella typhimurium by Ames test; type: toxicity; conditions: salmonella enterica subsp. enterica serovar typhimurium
[32] = Volume of distribution in iv dosed Beagle dog; type: ADME, organism-based, Canis lupus familiaris; conditions: in vivo
[33] = Oral bioavailability in Sprague-Dawley rat at 1 mg/kg; type: ADME, organism-based; conditions: in vivo
[34] = Toxicity in mouse xenografted with human MCF7 cells assessed as change in body weight at 6.5 to 60 mg/kg, po administered once daily for 21 days; type: organism-based; conditions: in vivo, 504 h, dose 6.5-60 mg/kg, time 21 day
[35] = Permeability of the compound from basolateral to apical side in human Caco-2 cells; type: ADME, cell-based; conditions: read-out: permeability
[36] = Metabolic stability in human hepatocytes assessed as intrinsic clearance measured per million cells; type: ADME, cell-based, Hepatocyte; conditions: read-out: CLH
[37] = AUC (0 to 24 hrs) in Beagle dog at 1 mg/kg, po; type: ADME, organism-based, Canis lupus familiaris; set-up: time < 24 hr, dose 1 mg/kg, route po; conditions: in vivo
[38] = Clearance in iv dosed Sprague-Dawley rat; type: ADME, organism-based; conditions: in vivo
[39] = Oral bioavailability in Beagle dog at 1 mg/kg; type: ADME, organism-based, Canis lupus familiaris; conditions: in vivo
[40] = Protein binding in human plasma assessed as free fraction; type: ADME, cell-free
MCF7 [41] = assay: Antitumor activity against tamoxifen-resistant human MCF7 cells xenografted in mouse assessed as tumor growth inhibition at 3 mg, po dosed once daily for 21 days relative to control; type: functional; conditions: time 21 day

Cytochrome P450 2C19, sequence (P33261 whole entry): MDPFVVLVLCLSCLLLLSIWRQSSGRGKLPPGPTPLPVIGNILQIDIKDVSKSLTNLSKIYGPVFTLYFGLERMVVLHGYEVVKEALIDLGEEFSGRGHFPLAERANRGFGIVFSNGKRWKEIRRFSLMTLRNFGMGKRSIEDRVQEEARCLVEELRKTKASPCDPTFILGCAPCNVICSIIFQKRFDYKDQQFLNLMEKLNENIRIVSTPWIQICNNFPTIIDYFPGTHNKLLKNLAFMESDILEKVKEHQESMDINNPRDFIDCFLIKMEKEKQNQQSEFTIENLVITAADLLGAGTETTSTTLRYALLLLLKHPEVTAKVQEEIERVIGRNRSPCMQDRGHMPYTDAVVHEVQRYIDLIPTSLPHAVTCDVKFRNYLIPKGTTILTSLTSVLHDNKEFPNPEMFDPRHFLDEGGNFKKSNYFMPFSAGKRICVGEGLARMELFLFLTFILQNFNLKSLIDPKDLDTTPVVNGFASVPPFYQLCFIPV
Cytochrome P450 3A4, sequence (P08684 whole entry): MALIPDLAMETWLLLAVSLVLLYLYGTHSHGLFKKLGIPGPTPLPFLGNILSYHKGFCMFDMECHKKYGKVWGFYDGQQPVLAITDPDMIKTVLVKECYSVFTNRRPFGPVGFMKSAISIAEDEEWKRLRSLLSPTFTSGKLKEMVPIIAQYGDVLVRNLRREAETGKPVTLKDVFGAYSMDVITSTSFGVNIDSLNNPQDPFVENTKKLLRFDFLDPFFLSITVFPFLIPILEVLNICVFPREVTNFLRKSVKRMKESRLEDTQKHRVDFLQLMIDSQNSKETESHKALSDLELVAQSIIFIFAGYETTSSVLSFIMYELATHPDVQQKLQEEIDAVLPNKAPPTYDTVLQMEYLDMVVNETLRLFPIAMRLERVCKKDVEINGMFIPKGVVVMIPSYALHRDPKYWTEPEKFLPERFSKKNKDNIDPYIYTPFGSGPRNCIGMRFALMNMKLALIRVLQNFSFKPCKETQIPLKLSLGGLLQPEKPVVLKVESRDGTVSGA
Cytochrome P450 2C9, sequence (P11712 whole entry): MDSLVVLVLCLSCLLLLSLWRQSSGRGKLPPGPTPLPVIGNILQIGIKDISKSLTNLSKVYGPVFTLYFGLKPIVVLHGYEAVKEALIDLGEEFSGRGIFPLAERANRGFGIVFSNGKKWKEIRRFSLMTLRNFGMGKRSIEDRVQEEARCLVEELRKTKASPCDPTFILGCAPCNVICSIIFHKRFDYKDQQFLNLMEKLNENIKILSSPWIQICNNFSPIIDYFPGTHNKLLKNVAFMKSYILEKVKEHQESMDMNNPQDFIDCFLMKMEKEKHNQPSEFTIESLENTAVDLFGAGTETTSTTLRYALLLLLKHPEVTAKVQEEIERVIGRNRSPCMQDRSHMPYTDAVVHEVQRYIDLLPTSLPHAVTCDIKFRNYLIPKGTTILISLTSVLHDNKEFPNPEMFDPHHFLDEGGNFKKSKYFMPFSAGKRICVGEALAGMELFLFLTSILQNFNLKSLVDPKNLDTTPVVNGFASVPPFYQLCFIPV
Cytochrome P450 2D6, sequence (P10635 whole entry): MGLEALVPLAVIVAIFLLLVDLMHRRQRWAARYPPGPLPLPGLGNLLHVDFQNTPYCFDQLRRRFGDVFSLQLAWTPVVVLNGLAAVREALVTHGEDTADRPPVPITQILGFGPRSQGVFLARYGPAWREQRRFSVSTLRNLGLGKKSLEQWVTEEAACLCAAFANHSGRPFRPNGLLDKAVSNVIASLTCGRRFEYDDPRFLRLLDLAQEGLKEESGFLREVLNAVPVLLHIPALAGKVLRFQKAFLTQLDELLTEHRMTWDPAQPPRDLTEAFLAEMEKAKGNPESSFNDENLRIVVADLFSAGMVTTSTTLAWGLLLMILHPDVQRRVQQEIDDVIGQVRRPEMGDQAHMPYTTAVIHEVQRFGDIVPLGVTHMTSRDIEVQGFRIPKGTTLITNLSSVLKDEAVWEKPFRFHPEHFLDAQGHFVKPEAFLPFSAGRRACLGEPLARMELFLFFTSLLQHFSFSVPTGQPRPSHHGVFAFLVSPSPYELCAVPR

SMILES: CC/C(=C(/c1ccc(/C=C/C(=O)O)cc1)c1[nH]c2ccccc2c1Br)c1ccc(F)cc1Cl
IC50 (MCF7 [7]): 8.53 nM | IC50 [8]: 0.66 nM | EC50 [9]: 2.44 nM

SMILES: CC/C(=C(/c1ccc(/C=C/C(=O)O)cc1)c1ccc2[nH]ncc2c1)c1ccc(F)cc1Cl [BRILANESTRANT]
inhibition (INH) [12]: 65%

SMILES: C[C@]12CC[C@@H]3c4ccc(O)cc4C[C@@H](CCCCCCCCC[S+]([O-])CCCC(F)(F)C(F)(F)F)[C@H]3[C@@H]1CC[C@@H]2O (stereo not given in full) [FULVESTRANT]
TGI (MCF7 [41]): 66%

SMILES: CC/C(=C(/c1ccc(/C=C/C(=O)O)cc1)c1[nH]c2ccccc2c1Cl)c1ccccc1C(F)(F)F
IC50 (MCF7 [7]): 13 nM | IC50 [8]: 0.82 nM | EC50 [9]: 9.95 nM

SMILES: CC/C(=C(/c1ccc(/C=C/C(=O)O)cc1)c1[nH]c2ccccc2c1Cl)c1cc(Cl)sc1Cl
IC50 (MCF7 [7]): 20 nM | IC50 [8]: 1.79 nM | EC50 [9]: 5.13 nM

SMILES: CC/C(=C(/c1ccc(/C=C/C(=O)O)cc1)c1cc2ccccc2[nH]1)c1ccc(F)cc1Cl
IC50 (MCF7 [7]): 21 nM | IC50 [8]: 1.6 nM | EC50 [9]: 39 nM

SMILES: CC/C(=C(/c1ccc(/C=C/C(=O)O)cc1)c1[nH]c2ccccc2c1Cl)c1ccsc1C#N
IC50 (MCF7 [7]): 7.56 nM | IC50 [8]: 0.18 nM | EC50 [9]: 2.25 nM

More lines, in order of falling IC50 (MCF7 [7]), values ahead:

bioavailability [1]: 6.21% | clearance [2]: 104 mL/min/kg | Cmax [4]: 35 nM | AUC(0-t) at 24 h [5]: 0.049 µM·h | Vd [6]: 4.28 L/kg | IC50 (MCF7 [7]): 4.85 nM | IC50 [8]: 0.23 nM | EC50 [9]: 2.6 nM
SMILES: CC/C(=C(/c1ccc(/C=C/C(=O)O)cc1)c1[nH]c2ccccc2c1C#N)c1ccc(F)cc1Cl

IC50 (MCF7 [7]): 4.78 nM | EC50 [9]: 1.26 nM
SMILES: CC/C(=C(/c1ccc(/C=C/C(=O)O)cc1)c1[nH]c2ccccc2c1C)c1ccc(F)cc1Cl

Cmax [10]: 2550 nM | hepatocyte CLint [13]: 9.8 µL/min/1e6 cells | clearance [16]: 0.84 mL/min/kg | IC50 (Cytochrome P450 2D6): 14300 nM | IC50 (Cytochrome P450 1A2): 7700 nM | AUC(0-t) at 24 h [19]: 2.7 µM·h | Papp A→B [20]: 0.94 ×10⁻⁶ cm/s | F ([1]; mouse, po, 2.5 mg/kg): 60.1% | hepatocyte CLint [21]: 11.1 µL/min/1e6 cells | IC50 (Cytochrome P450 2C19): 10100 nM | Cmax [22]: 381 nM | hepatocyte CLint [23]: 8.6 µL/min/1e6 cells | IC50 (Cytochrome P450 2C9): 5100 nM | C0 [25]: 12800 nM | efflux ratio [26]: 1.32 | AUC(0-t) at 24 h [27]: 4.82 µM·h | AUC(0-t) at 24 h [28]: 43.8 µM·h | Cmax [4]: 1870 nM | IC50 (Cytochrome P450 3A4): 7000 nM | C0 [29]: 2610 nM | Vd [30]: 2 L/kg | Vd [32]: 0.42 L/kg | AUC ([5]; mouse, 24 h): 15.329 µM·h | bioavailability [33]: 56% | Vd [6]: 0.5 L/kg | Papp B→A [35]: 1.25 ×10⁻⁶ cm/s | IC50 (MCF7 [7]): 3.76 nM | hepatocyte CLint [36]: 15.2 µL/min/1e6 cells | IC50 [8]: 0.99 nM | AUC(0-t) at 24 h [37]: 24.2 µM·h | clearance [38]: 7.7 mL/min/kg | EC50 [9]: 2.29 nM | bioavailability [39]: 55% | fraction unbound [40]: 0.051
SMILES: CC/C(=C(/c1ccc(/C=C/C(=O)O)cc1)c1[nH]c2ccccc2c1Cl)c1ccc(F)cc1Cl
Activity [11]: Non-Toxic | inhibition (INH) [12]: 94% | Activity [14]: Non-Toxic | inhibition (MCF7 [15]): Dde | inhibition in vivo at 200 mg/kg (MCF7 [17]): 91% | inhibition in vivo at 60 mg/kg (MCF7 [18]): 113% | Activity [3]: Non-Toxic | inhibition in vivo at 20 mg/kg (MCF7 [24]): 104% | Activity [31]: Non-Toxic | Activity [34]: Non-Toxic

bioavailability [1]: 33.7% | clearance [2]: 29.7 mL/min/kg | Cmax [4]: 246 nM | AUC(0-t) at 24 h [5]: 0.883 µM·h | Vd [6]: 4.48 L/kg | IC50 (MCF7 [7]): 0.97 nM | IC50 [8]: 0.23 nM | EC50 [9]: 0.735 nM
SMILES: CC/C(=C(/c1ccc(/C=C/C(=O)O)cc1)c1[nH]c2ccccc2c1Cl)c1ccc(Cl)cc1C#N
Activity [3]: Non-Toxic
